Assay results reported in US10441654B2 (priority 2014, dated 2019).
pEC50: −log10 of the molar value. Entries after “also recorded” stand apart in the source; their conditions may differ.

How the values were obtained:
[1] = system: cancer cells; format: cell-based
[2] = system: EMT6 mammary carcinoma; conditions: mouse, in vivo
[3] = system: EMT6 cells; format: cell-based, mouse
[4] = system: TNFα; conditions: mouse, in vivo, ip
[5] = system: TNFα; conditions: mouse, in vivo, ip; remark: listed apart in the source
[6] = system: CT-2A, K1580 glioblastoma cells; format: cell-based, mouse
[7] = mouse, in vivo
[8] = system: cancer cells; format: cell-based; remark: listed apart in the source
[9] = system: CT-2A intracranial tumors; conditions: mouse, in vivo
[10] = system: cancer cell lines (n=28); format: cell-based
[11] = system: SNB75 cells; experiment: cells; format: cell-based; conditions: Homo sapiens, SNB-75, read-out: EC50 of SMC therapy
[12] = system: 786-0 cells; format: cell-based
[13] = system: VSVΔ51; format: cell-based
[14] = system: VSVΔ51; conditions: mouse, 50 mg/kg
[15] = system: interferon stimulated gene (ISG) expression; format: cell-based; conditions: cells treated with VSVΔ51 and SMC, 20 hours
[16] = system: IFNβ; format: cell-based
[17] = system: Jak/Stat signalling downstream of IFNβ; format: cell-based
[18] = system: TRAIL and TNFα; format: cell-based, human
[19] = system: TNFα; format: cell-based, mouse
[20] = system: cIAP1/2; experiment: cIAP1/2 knockdown in EMT6 tumors (western blotting); format: in vivo, mouse; conditions: 50 mg/kg oral gavage
[21] = system: CT-26 mouse colon carcinoma; conditions: in vivo
[22] = mouse, in vivo; remark: listed apart in the source

Compound: SM-164
- synergy with VSVΔ51 to cause cancer cell death [1]: synergize

Compound: poly(I:C)
- tumor growth [2]: no bearing on tumor growth
- bystander death of SMC treated EMT6 cells [3]: led to EMT6 cell death directly
- TNFα in serum [4]: robust expression of TNFα
- TNFα levels from the brain [5]: marked up-regulation of TNFα levels
- glioblastoma cell death by brain lysates of treated mice in the presence of SMCs [6]: enhanced cell death in the presence of SMCs
- toxicity of direct intracranial administration [7]: without overt toxicities

Compound: IFNγ
- synergy with SMC recapitulated by recombinant cytokine [8]: recapitulated

Compound: CC(C)Cn1cnc2c(N)nc3ccccc3c21 [imiquimod]
- bystander death of SMC treated EMT6 cells [3]: required splenocytes

Compound: IFNα
- tumor growth and survival [2]: no effect on EMT6 tumor growth or overall survival
- synergy with SMC recapitulated by recombinant cytokine [8]: recapitulated
- neurotoxicity [9]: did not result in any overt neurotoxicity

Compound: CN[C@@H](C)C(=O)N[C@H](C(=O)N1CCC[C@H]1c1nc(C(=O)c2ccc(F)cc2)cs1)C1CCCCC1 [LCL161]
- cancer cell lines in which SMC treatment enhanced sensitivity to VSVΔ51 [10]: 54%
- enhanced sensitivity: EC50 of VSVΔ51 upon SMC treatment [10]: 10-10,000 fold
- pEC50 [11]: < 5.60
- synergy with VSVΔ51 to cause cancer cell death [1]: synergize
- cell death outside of the zone of virus infection [12]: dramatic cell death
- VSVΔ51 infectivity in or spread through tumor cells [13]: does not alter
- growth kinetics of VSVΔ51 [13]: does not affect the growth kinetics
- viral replication and spread in vivo [14]: No differences in viral kinetics
- ISG gene expression in response to oncolytic VSV infection [15]: no bearing
- IFNβ secretion [16]: slightly lower levels
- activation of Jak/Stat signalling downstream of IFNβ [17]: do not alter
- induction of TRAIL and TNFα by IFNβ [18]: potentiated
- cellular production of TNFα upon VSV infection [19]: 5- to 7 fold percentage increase
- cure rate [2]: 17%
- tumor growth and survival [2]: decrease in the rate of tumor growth and a modest extension in survival; also recorded: slightly extended mouse survival
- tumor growth rates and survival [2]: slightly delayed EMT6 tumor growth rates and slightly extended the survival
- duration of cIAP1/2 knockdown in tumors [20]: at least 24 hrs
- duration of cIAP1/2 knockdown in tumors, in some cases [20]: 48 to 72 h
- tumor growth rate and survival [21]: modest decrease of the tumor growth rate and a slight extension of survival
- tolerability [22]: well tolerated
- weight loss ([22]; po, 50 mg/kg): minimal transient weight loss
- neurotoxicity [9]: did not result in any overt neurotoxicity
